The text below walks through data of PMC12221116, “Novel Quinazolinones Active against Multidrug‐Resistant Mycobacterium Tuberculosis: Synthesis, Antimicrobial Evaluation, and in Silico Exploration of Penicillin‐Binding Protein 1A as a Potential Target” (Chemmedchem, 2025).

Values after ≈ are worked out from the molar mass of the structure shown. Values joined by “and” are separate entries in the source; they are usually repeats but may differ in a detail not shown here. Identical values can stand only once. Like-named read-outs stand apart in the source and are kept apart here.

One experiment has as its system Protein RecA. Also on record: method as in ChEMBL. The following applies: target CHEMBL1741171; ref ChEMBL; cited from earlier work.
A further experiment addresses Replicative DNA helicase. Also noted: method as in ChEMBL. Conditions: target CHEMBL1741192; ref ChEMBL; cited from earlier work.
Experiment [1] deals with Mycobacterium tuberculosis. Conditions: target CHEMBL360; ref ChEMBL; cited from earlier work.
Experiment [2] relates to Pseudomonas aeruginosa ATCC 27853, CCM 3955. The experiment in a line: Antibacterial microdilution broth, quality standards. The following applies: 24 h. Format: cell-based. (In broth dilution the organism is exposed to a series of concentrations in liquid medium.)
The test system of experiment [3] is Staphylococcus epidermidis ATCC 12228, CCM 4418. The experiment is described as above. Format: cell-based. Conditions: 24 h.
The subject of experiment [4] is Escherichia coli ATCC 25922, CCM 3954. The description is as above. The experiment is classed as cell-based. Conditions: 24 h.
Experiment [5] concerns Staphylococcus aureus subsp. aureus, MRSA ATCC 43300, CCM 4750. Described as above. Conditions: 24 h. Format: cell-based.
Experiment [6] deals with Enterococcus faecalis ATCC 29212, CCM 4224. Described as above. Format: cell-based. The following applies: 24 h.
Experiment [7] deals with Klebsiella pneumoniae ATCC 10031, CCM 4415. Described as above. The following applies: 24 h. The experiment is classed as cell-based.
Experiment [8] has as its system Acinetobacter baumannii ATCC 19606, DSM 30007. Described as above. Format: cell-based. The following applies: 24 h.
In experiment [9] the test system is Staphylococcus aureus subsp. aureus ATCC 29213, CCM 4223. The experiment is described as above. Format: cell-based. Conditions: 24 h.

With `O=c1c2ccccc2nc(/C=C/c2cccnc2)n1CCc1ccccc1` [CHEMBL1366795], the EC50 (usually the concentration at which the effect is half-maximal) with Protein RecA is 12 µM.
In the case of `O=c1c2ccccc2nc(/C=C/c2cccnc2)n1Cc1ccccc1` [CHEMBL1567670], at Replicative DNA helicase, the AC50 (in general, the concentration giving half of the maximal activity seen) was 13.6 µM and 9.29 µM. Also, the EC50 in the experiment on Protein RecA was 9.92 µM.
On to `Cc1nc2ccc(-c3ccccc3)cc2c(=O)n1-c1ccccc1` [CHEMBL4442905], for which the “MIC Mycobacterium tuberculosis” value in experiment [1] is greater than 64 µg/mL.
For the compound `C#CCNc1ccc2c(=O)n(-c3ccccc3)c(C)nc2c1` [CHEMBL4444032], in [1], the “MIC Mycobacterium tuberculosis” value is 4 µg/mL (≈ 13.8 µM).
As to `CNC(C)C1CCC(N)C(OC2C(N)CC(N)C(OC3OCC(C)(O)C(NC)C3O)C2O)O1` (stereo not drawn) [gentamicin], the MIC (in general, the least concentration at which growth counts as inhibited) in experiment [2] (95% growth inhibition, read-out: MIC spectrophotometric detection, P. aeruginosa) was 0.5 µg/mL (≈ 1.05 µM); in [2] (naked eye, read-out: MIC visual detection, P. aeruginosa), 0.5 µg/mL (≈ 1.05 µM); in [3] (95% growth inhibition, read-out: MIC spectrophotometric detection, S. epidermidis), greater than 8 µg/mL; in [3] (naked eye, read-out: MIC visual detection, S. epidermidis), greater than 8 µg/mL; in [4] (95% growth inhibition, read-out: MIC spectrophotometric detection, E. coli), 1 to 2 µg/mL (≈ 2.09 to 4.19 µM); in experiment [4] (naked eye, read-out: MIC visual detection, E. coli), 1 to 2 µg/mL (≈ 2.09 to 4.19 µM). For the same compound, the MIC was 16 to 32 µg/mL (≈ 33.5 to 67 µM) in experiment [5] (95% growth inhibition, read-out: MIC spectrophotometric detection, MRSA); 16 to 32 µg/mL (≈ 33.5 to 67 µM) in [5] (naked eye, read-out: MIC visual detection, MRSA); 16 µg/mL (≈ 33.5 µM) in experiment [6] (read-out: MIC spectrophotometric detection, E. faecalis); 8 µg/mL (≈ 16.8 µM) in experiment [6] (naked eye, read-out: MIC visual detection, E. faecalis); greater than 8 µg/mL in experiment [7] (95% growth inhibition, read-out: MIC spectrophotometric detection, K. pneumoniae); greater than 8 µg/mL in [7] (naked eye, read-out: MIC visual detection, K. pneumoniae). Besides, the MIC was 2 µg/mL (≈ 4.19 µM) in [8] (95% growth inhibition, read-out: MIC spectrophotometric detection, A. baumannii); 2 µg/mL (≈ 4.19 µM) in experiment [8] (naked eye, read-out: MIC visual detection, A. baumannii); 1 µg/mL (≈ 2.09 µM) in experiment [9] (95% growth inhibition, read-out: MIC spectrophotometric detection, S. aureus); 1 µg/mL (≈ 2.09 µM) in experiment [9] (naked eye, read-out: MIC visual detection, S. aureus).
